From ChEMBL document CHEMBL1201862, “PubChem BioAssay data set” (2004)
Active and inactive are the calls of the source.

What was measured:
[1] = molecular target: Intestinal-type alkaline phosphatase (Mus musculus, UniProt P24822); experiment: PubChem AID 488874; type: functional
Caspase-6 = molecular target: T1, Caspase-6 (Homo sapiens, UniProt P55212); experiment: human caspase-6 inhibitors, dose response, biochemical, VEID-R110 fluorescence, cherry-pick (AID 720632)
T1 sequence (P55212 whole entry): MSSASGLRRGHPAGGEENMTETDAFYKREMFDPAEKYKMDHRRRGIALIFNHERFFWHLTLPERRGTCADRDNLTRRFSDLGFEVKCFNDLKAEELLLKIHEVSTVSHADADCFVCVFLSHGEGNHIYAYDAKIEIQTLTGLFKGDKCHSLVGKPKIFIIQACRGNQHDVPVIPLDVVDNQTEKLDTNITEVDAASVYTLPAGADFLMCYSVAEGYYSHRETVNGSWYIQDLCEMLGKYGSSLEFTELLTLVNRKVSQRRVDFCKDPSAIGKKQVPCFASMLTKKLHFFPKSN

Leucine aminopeptidase = molecular target: T2, Leucine aminopeptidase (Plasmodium falciparum 3D7, UniProt Q8IL11); experiment: P. falciparum M17LAP inhibitors, primary screen, biochemical, fluorogenic H-Leu-NHMec substrate, 1536-well (AID 1619); type: functional
T2 sequence (Q8IL11 whole entry): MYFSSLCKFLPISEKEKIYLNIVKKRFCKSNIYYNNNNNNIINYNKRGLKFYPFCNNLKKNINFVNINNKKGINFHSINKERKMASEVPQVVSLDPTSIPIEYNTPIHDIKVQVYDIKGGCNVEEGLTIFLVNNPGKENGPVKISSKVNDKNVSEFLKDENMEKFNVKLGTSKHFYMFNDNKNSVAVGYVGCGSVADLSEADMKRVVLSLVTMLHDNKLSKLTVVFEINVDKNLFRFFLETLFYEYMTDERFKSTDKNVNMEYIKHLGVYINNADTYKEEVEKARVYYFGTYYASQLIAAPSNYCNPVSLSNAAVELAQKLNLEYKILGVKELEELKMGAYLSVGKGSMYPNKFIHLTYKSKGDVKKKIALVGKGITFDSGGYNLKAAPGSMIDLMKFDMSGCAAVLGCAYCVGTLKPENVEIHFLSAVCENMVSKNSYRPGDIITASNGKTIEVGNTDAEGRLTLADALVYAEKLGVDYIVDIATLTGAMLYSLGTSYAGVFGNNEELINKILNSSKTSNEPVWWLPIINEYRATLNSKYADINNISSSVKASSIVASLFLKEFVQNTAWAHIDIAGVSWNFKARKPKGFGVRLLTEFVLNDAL

[2] = cytotoxicity toward DRD oncogenic fibroblasts, dose response, cell-based, non-viral oncogenic, luminescence (AID 1934); type: functional; settings: Homo sapiens
[3] = molecular target: Tyrosine-protein kinase Lyn (Homo sapiens, UniProt P07948); type: functional;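 further: lyn as one member of a kinase panel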
[4] = molecular target: Rho-associated protein kinase 1 (Homo sapiens, UniProt Q13464); type: functional;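 further: measured within a broad kinome-wide panel profiling many kinases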
[5] = molecular target: Eukaryotic elongation factor 2 kinase (Homo sapiens, UniProt O00418); type: functional
[6] = molecular target: Calcium/calmodulin-dependent protein kinase type II subunit alpha (Homo sapiens, UniProt Q9UQM7); experiment: Navigating the Kinome. Panel member name: CAMK2A; type: functional
[7] = molecular target: Cyclin-dependent kinase 2 (Homo sapiens, UniProt P24941); type: functional;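 further: CDK2 measured as one member of a broad kinome profiling panel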
[8] = molecular target: Ribosomal protein S6 kinase beta-1 (Homo sapiens, UniProt P23443); type: functional;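 further: measured as one member of a kinome-wide profiling panel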
Misshapen-like kinase 1 = Misshapen-like kinase 1 (Homo sapiens, UniProt Q8N4C8); type: functional;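 further: kinome panel screen with MINK as the panel member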
[9] = molecular target: 5'-AMP-activated protein kinase catalytic subunit alpha-1 (Homo sapiens, UniProt Q13131); type: functional
[10] = molecular target: High affinity nerve growth factor receptor (Homo sapiens, UniProt P04629); type: functional;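 further: NTRK1 tested as one member of a kinome-wide profiling panel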
[11] = molecular target: Mitogen-activated protein kinase kinase kinase kinase 5 (Homo sapiens, UniProt Q9Y4K4); type: functional;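 further: measured as one member of a kinome-spanning kinase panel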
[12] = molecular target: Cyclin-dependent kinase 9 (Homo sapiens, UniProt P50750); type: functional;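 further: value from the CDK9 entry of a kinome-spanning kinase panel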
[13] = molecular target: Cyclin-dependent kinase 8 (Homo sapiens, UniProt P49336); experiment: Navigating the Kinome. Panel member name: CDK8; type: functional
Insulin receptor = Insulin receptor (Homo sapiens, UniProt P06213); type: functional;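 further: insulin receptor kinase tested as one member of a kinome-wide kinase panel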
[14] = molecular target: Calcium/calmodulin-dependent protein kinase type II subunit gamma (Homo sapiens, UniProt Q13555); type: functional
[15] = molecular target: BDNF/NT-3 growth factors receptor (Homo sapiens, UniProt Q16620); type: functional;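 further: NTRK2 measured as one member of a broad kinome-wide kinase profiling panel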
[16] = molecular target: Calcium/calmodulin-dependent protein kinase type 1 (Homo sapiens, UniProt Q14012); type: functional
[17] = molecular target: Mitogen-activated protein kinase 9 (Homo sapiens, UniProt P45984); type: functional;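 further: value from a kinome panel profiling assay, MAPK9 panel entry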
[18] = molecular target: Serine/threonine-protein kinase TAO1 (Homo sapiens, UniProt Q7L7X3); type: functional

Sequence of Rho-associated protein kinase 1 (Q13464 whole entry): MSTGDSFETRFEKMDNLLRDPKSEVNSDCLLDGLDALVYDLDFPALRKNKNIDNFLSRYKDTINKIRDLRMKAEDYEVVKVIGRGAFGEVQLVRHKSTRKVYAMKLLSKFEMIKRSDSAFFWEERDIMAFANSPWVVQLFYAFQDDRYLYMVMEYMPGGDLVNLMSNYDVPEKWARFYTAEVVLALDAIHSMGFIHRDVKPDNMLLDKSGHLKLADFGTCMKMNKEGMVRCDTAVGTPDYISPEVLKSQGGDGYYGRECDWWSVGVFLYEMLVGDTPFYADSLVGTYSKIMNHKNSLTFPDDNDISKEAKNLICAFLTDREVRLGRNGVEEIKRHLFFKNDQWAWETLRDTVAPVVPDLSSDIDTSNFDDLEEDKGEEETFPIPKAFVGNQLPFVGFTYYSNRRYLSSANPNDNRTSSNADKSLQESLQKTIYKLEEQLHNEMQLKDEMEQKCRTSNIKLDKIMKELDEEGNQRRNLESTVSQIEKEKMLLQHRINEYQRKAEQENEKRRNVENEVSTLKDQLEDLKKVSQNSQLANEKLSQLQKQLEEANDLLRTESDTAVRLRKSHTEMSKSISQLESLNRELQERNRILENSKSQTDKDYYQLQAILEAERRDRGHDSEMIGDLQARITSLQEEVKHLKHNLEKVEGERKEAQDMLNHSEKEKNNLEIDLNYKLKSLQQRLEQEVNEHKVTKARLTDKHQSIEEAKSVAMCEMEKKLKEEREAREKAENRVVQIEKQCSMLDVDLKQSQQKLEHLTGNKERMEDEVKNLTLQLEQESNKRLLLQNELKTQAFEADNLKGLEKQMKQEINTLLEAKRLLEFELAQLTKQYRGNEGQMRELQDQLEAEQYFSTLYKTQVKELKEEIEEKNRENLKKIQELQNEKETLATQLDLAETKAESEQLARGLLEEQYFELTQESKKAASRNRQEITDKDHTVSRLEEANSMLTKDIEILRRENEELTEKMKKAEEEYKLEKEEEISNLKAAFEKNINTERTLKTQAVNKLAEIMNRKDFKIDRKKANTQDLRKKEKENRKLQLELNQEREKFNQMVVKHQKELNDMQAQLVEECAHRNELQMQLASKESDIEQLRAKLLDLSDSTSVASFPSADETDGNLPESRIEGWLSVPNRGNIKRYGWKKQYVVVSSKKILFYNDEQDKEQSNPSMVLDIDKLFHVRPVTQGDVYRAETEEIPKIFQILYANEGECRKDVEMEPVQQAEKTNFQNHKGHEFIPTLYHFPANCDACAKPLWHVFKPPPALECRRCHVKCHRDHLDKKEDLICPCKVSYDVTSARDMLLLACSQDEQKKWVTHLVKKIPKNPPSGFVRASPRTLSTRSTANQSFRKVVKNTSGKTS
Sequence of Eukaryotic elongation factor 2 kinase (O00418 whole entry): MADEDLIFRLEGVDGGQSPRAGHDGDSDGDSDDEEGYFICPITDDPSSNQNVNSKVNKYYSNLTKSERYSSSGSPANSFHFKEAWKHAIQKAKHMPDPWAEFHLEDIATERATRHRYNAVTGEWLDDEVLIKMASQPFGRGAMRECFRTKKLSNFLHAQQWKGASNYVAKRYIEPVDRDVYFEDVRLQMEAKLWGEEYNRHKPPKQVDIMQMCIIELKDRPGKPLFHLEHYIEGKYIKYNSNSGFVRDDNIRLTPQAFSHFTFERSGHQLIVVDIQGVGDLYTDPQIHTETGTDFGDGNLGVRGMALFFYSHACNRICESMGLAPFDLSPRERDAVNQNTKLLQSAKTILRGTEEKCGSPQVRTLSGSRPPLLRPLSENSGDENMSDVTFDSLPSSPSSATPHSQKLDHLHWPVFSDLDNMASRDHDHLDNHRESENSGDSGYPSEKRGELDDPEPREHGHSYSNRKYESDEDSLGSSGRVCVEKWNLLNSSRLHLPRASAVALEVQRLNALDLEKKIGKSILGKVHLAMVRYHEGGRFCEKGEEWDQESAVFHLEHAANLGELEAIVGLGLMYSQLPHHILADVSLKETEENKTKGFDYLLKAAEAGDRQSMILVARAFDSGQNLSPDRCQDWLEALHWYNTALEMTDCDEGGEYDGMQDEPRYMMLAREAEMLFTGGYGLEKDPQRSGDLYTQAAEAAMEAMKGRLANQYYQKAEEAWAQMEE
Sequence of Cyclin-dependent kinase 8 (P49336 whole entry): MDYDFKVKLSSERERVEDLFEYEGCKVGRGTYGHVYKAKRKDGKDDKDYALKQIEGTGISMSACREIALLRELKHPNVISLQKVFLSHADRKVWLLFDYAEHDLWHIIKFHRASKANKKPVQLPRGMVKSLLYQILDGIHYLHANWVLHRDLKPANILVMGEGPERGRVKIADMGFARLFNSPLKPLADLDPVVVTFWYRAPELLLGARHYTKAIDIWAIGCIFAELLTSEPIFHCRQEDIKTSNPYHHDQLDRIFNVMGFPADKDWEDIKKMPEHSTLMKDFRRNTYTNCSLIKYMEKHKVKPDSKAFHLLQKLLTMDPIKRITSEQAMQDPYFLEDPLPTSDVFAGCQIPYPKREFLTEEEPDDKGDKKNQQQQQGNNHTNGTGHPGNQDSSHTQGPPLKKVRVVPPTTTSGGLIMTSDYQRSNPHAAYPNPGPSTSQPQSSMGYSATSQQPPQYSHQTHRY
Sequence of Calcium/calmodulin-dependent protein kinase type II subunit gamma (Q13555 whole entry): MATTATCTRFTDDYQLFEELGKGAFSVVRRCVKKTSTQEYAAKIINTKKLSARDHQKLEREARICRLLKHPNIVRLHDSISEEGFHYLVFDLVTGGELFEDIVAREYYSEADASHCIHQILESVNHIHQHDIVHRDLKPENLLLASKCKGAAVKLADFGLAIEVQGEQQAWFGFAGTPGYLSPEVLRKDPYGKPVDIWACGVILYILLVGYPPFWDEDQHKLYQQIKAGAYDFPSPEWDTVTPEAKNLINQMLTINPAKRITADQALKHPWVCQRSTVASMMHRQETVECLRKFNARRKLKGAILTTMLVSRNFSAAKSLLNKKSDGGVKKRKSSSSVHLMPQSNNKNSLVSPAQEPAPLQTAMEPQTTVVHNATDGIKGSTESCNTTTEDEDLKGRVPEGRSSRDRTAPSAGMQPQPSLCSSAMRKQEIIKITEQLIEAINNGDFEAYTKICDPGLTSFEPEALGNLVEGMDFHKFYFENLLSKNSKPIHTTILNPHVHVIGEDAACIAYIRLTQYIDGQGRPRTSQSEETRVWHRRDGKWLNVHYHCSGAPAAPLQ
Sequence of 5'-AMP-activated protein kinase catalytic subunit alpha-1 (Q13131 whole entry): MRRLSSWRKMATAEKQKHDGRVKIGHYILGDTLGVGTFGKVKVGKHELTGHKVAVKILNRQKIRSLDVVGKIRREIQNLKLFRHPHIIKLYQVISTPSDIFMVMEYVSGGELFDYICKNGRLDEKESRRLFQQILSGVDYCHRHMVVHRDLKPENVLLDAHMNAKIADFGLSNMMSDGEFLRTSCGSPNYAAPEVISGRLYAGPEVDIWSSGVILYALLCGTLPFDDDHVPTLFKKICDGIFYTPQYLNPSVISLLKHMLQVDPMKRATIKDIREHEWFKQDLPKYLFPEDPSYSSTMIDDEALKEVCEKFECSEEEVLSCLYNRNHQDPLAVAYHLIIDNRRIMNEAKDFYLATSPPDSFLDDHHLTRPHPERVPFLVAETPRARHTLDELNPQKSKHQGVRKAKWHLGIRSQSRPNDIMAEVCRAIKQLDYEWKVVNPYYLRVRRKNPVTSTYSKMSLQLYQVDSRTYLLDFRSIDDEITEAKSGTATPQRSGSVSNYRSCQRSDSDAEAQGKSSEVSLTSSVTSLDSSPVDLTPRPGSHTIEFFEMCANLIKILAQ
Sequence of Tyrosine-protein kinase Lyn (P07948 whole entry): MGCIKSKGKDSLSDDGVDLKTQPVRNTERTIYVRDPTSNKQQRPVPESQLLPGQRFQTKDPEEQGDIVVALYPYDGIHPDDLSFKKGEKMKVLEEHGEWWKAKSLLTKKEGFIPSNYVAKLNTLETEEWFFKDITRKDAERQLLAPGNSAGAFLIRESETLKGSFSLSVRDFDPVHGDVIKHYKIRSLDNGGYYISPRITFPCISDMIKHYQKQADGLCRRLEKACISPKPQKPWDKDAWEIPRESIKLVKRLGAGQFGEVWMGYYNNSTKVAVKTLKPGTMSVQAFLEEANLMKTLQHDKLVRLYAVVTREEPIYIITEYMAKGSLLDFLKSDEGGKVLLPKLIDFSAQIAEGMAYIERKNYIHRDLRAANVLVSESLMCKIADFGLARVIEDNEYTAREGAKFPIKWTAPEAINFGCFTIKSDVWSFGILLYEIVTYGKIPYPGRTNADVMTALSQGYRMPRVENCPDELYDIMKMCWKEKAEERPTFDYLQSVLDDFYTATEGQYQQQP
Sequence of Ribosomal protein S6 kinase beta-1 (P23443 whole entry): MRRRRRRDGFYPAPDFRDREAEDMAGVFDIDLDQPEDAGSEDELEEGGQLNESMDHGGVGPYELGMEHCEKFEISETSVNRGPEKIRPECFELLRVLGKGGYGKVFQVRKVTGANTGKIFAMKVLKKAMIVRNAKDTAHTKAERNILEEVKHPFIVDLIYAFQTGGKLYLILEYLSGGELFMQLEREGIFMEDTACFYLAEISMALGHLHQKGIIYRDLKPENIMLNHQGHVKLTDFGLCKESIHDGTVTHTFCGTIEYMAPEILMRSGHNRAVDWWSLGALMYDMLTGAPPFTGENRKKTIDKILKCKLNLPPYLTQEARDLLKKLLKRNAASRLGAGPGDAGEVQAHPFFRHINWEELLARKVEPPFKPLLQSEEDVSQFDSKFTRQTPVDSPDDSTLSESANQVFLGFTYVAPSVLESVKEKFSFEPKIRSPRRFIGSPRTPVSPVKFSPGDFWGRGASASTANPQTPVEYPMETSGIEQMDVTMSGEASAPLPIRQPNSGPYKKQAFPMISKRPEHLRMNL

With `O=C(NN1C(=O)CSC1=S)C(=O)NN1C(=O)CSC1=S` as the molecule, how does the IC50 [1] read?
Its IC50 is 3.84 µM (active).

What about the AC50 (Caspase-6) of the same molecule?
Its AC50 is 0.276 µM (active).

And the IC50 (Leucine aminopeptidase)?
Its IC50 is 20.5 µM (active).

Which EC50 [2] does the source give for `COC(=O)C1CN(C#N)N(c2ccc(Cl)cc2)C12c1ccccc1-c1ccccc12` (configuration not stated) here?
Its EC50 is 3.75 µM (active).

What does the source list for `Nc1noc2cccc(-c3cccc(O)c3)c12`?
Ki [3]: > 1.58 µM (inactive); Ki [4]: 1 µM (active); Ki [5]: > 3.98 µM (inactive); Ki [6]: 50.1 µM (active); Ki [7]: > 7.94 µM (inactive); Ki [8]: 0.126 µM (active); Ki (Misshapen-like kinase 1): 3.16 µM (active); Ki [9]: > 25.1 µM (inactive); Ki [10]: > 2.51 µM (inactive); Ki [11]: > 7.94 µM (inactive); Ki [12]: 15.8 µM (active); Ki [13]: 0.501 µM (active); Ki (Insulin receptor): > 5.01 µM (inactive); Ki [14]: 6.31 µM (active); Ki [15]: > 20 µM (inactive); Ki [16]: > 5.01 µM (inactive); Ki [17]: > 3.98 µM (inactive); Ki [18]: > 25.1 µM (inactive)
